# Test results from US7074789B2, “Kinase inhibitors” (Amgen Inc., priority 1999, dated 2006).
# Values joined by “and” are separate entries in the source; they are usually repeats but may differ in a detail not shown here. Equal values may be shown once. Read-outs that look alike come from different tables or passages of the source.
# What was measured:
# Assay type in all cases: biochemical
# [1] = target: T1, Lck (Homo sapiens, UniProt P06239); experiment: Kinase inhibition assay (33P transfer), Lck; conditions: read-out: Lck-1
# T1 construct: Kinases are expressed as either kinase domains or full length constructs; made in house
# Summary of the method: (§1)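 Activity was read as 33P incorporation, counted by liquid scintillation after a 0.5% phosphoric acid wash, into poly(Glu,Tyr) 4:1 or poly(Arg,Ser) 3:1 substrates coated on plates. Enzymes were tagged (GST or polyHis) kinase domains or full-length proteins from bacterial or insect-cell expression, sometimes with regulatory polypeptides.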
# [2] = target: T2, Lyn (Homo sapiens, UniProt P07948); experiment: Kinase inhibition assay (33P transfer), Lyn; conditions: Table 6, Lyn-1 kinase inhibition class
# T2 construct: Kinases are expressed as either kinase domains or full length constructs; made in house
# Summary of the method: (§2)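 Radiometric format: recombinant tagged kinase (catalytic domain or whole protein, sometimes combined with regulatory polypeptides) phosphorylates immobilised poly(Glu,Tyr) 4:1 or poly(Arg,Ser) 3:1 using [33P]ATP. Wells are washed in 0.5% phosphoric acid, then counted. IC50 is taken where substrate labelling falls by half.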
# [3] = target: T3, Src (Homo sapiens, UniProt P12931); experiment: Kinase inhibition assay (33P transfer), Src; conditions: Table 6, Src-1 kinase inhibition class
# T3 construct: Kinases are expressed as either kinase domains or full length constructs; made in house
# T3 sequence (P12931 whole entry, species assumed, the tested form may be a part): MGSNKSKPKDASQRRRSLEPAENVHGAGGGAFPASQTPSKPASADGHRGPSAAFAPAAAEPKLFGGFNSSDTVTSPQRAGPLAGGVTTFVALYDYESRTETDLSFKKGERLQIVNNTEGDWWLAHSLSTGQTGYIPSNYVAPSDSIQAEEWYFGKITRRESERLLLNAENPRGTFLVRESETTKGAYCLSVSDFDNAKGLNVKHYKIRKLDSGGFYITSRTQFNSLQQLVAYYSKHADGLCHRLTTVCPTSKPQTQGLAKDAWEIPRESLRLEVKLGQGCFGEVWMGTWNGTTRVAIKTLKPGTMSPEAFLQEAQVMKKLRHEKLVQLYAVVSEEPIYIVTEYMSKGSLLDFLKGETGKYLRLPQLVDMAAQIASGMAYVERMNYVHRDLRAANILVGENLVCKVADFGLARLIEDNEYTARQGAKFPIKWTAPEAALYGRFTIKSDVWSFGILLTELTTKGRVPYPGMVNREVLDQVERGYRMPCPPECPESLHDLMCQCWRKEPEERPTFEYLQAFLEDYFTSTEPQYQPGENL
# Summary of the method: as §2
# [4] = target: T4, Fyn (Homo sapiens, UniProt P06241); experiment: Kinase inhibition assay (33P transfer), Fyn; conditions: read-out: Fyn-1
# T4 construct: Kinases are expressed as either kinase domains or full length constructs; made in house
# Summary of the method: as §2
# [5] = target: T5, Zap-70 (Homo sapiens, UniProt P43403); experiment: Kinase inhibition assay (33P transfer), Zap-70; conditions: read-out: Zap-1
# T5 construct: Kinases are expressed as either kinase domains or full length constructs; made in house
# T5 sequence (P43403 1-619): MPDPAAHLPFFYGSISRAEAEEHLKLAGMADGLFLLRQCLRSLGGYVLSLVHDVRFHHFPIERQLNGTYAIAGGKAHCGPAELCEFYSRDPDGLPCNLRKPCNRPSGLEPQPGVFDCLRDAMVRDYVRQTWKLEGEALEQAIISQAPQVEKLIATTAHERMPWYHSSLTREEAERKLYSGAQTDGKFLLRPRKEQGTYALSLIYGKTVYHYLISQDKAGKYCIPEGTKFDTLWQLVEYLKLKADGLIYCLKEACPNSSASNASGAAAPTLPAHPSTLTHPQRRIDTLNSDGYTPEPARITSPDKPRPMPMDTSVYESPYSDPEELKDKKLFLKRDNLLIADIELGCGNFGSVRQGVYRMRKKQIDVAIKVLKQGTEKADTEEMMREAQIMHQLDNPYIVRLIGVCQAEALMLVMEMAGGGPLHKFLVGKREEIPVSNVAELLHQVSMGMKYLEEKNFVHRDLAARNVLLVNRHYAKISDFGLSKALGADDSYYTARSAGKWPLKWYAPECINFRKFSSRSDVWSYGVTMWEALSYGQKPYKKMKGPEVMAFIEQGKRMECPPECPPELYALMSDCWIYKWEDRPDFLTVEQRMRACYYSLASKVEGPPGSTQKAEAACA
# Summary of the method: as §1
# [6] = target: T6, Itk (Homo sapiens, UniProt Q08881); experiment: Kinase inhibition assay (33P transfer), Itk; conditions: read-out: Itk-1
# T6 construct: Kinases are expressed as either kinase domains or full length constructs; made in house
# T6 sequence (Q08881 1-620): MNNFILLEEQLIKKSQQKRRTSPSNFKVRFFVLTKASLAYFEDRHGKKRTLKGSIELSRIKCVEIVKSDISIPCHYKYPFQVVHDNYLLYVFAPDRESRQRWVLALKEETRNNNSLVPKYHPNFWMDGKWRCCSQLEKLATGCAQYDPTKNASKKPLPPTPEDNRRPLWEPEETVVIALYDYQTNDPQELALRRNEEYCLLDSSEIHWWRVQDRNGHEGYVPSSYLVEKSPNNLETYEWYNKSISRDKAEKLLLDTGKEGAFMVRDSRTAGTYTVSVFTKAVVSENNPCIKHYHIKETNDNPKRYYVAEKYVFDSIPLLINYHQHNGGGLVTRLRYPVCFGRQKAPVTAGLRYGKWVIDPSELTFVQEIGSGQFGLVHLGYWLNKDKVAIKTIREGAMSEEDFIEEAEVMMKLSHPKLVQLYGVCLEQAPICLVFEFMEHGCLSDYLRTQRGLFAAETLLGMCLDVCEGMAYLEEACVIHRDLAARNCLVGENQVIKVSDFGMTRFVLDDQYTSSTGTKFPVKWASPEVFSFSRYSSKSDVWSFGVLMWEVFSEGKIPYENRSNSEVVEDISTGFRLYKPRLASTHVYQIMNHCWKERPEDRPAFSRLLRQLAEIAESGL
# Summary of the method: as §2
# [7] = target: T7, EGFR (Homo sapiens, UniProt P00533); experiment: Kinase inhibition assay (33P transfer), EGFR; conditions: read-out: EGFR-1
# T7 construct: Kinases are expressed as either kinase domains or full length constructs; made in house
# T7 sequence (P00533 25-1210, species assumed): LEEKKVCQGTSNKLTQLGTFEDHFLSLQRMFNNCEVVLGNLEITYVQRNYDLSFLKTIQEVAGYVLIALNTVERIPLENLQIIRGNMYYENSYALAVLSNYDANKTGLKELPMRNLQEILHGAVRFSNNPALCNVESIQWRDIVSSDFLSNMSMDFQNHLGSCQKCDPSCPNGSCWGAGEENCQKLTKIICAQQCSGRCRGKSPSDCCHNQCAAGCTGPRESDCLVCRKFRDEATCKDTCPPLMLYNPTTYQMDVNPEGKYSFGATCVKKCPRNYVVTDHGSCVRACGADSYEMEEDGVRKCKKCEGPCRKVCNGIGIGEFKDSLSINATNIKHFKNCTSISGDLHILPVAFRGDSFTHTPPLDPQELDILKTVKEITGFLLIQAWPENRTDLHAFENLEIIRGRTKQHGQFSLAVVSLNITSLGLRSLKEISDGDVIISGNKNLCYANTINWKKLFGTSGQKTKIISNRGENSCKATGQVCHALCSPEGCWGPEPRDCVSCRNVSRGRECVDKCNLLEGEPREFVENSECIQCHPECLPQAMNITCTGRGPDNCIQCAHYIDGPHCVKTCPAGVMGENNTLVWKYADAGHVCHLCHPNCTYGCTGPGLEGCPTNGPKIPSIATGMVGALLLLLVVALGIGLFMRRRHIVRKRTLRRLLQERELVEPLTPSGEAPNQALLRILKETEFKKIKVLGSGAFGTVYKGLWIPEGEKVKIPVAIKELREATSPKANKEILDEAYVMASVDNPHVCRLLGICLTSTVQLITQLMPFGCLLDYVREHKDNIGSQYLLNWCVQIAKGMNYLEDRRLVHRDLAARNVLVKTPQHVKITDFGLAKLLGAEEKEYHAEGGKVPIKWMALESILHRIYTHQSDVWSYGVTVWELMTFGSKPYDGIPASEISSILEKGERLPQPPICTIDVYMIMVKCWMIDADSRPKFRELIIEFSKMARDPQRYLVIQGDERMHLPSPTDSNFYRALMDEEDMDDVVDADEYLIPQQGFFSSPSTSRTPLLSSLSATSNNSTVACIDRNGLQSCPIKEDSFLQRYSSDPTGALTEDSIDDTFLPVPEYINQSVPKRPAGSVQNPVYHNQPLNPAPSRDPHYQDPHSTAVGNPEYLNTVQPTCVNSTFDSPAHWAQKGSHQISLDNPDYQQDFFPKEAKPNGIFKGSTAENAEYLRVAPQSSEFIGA
# Summary of the method: as §2
# [8] = target: T8, ErbB2 (Homo sapiens, UniProt P04626); experiment: Kinase inhibition assay (33P transfer), ErbB2; conditions: read-out: ErbB2-2
# T8 construct: Kinases are expressed as either kinase domains or full length constructs; made in house
# Summary of the method: as §2
# [9] = target: T9, Kdr (Homo sapiens, UniProt P35968); experiment: Kinase inhibition assay (33P transfer), Kdr; conditions: read-out: KDR-1
# T9 construct: Kinases are expressed as either kinase domains or full length constructs; made in house
# T9 sequence (P35968 20-1356, species assumed): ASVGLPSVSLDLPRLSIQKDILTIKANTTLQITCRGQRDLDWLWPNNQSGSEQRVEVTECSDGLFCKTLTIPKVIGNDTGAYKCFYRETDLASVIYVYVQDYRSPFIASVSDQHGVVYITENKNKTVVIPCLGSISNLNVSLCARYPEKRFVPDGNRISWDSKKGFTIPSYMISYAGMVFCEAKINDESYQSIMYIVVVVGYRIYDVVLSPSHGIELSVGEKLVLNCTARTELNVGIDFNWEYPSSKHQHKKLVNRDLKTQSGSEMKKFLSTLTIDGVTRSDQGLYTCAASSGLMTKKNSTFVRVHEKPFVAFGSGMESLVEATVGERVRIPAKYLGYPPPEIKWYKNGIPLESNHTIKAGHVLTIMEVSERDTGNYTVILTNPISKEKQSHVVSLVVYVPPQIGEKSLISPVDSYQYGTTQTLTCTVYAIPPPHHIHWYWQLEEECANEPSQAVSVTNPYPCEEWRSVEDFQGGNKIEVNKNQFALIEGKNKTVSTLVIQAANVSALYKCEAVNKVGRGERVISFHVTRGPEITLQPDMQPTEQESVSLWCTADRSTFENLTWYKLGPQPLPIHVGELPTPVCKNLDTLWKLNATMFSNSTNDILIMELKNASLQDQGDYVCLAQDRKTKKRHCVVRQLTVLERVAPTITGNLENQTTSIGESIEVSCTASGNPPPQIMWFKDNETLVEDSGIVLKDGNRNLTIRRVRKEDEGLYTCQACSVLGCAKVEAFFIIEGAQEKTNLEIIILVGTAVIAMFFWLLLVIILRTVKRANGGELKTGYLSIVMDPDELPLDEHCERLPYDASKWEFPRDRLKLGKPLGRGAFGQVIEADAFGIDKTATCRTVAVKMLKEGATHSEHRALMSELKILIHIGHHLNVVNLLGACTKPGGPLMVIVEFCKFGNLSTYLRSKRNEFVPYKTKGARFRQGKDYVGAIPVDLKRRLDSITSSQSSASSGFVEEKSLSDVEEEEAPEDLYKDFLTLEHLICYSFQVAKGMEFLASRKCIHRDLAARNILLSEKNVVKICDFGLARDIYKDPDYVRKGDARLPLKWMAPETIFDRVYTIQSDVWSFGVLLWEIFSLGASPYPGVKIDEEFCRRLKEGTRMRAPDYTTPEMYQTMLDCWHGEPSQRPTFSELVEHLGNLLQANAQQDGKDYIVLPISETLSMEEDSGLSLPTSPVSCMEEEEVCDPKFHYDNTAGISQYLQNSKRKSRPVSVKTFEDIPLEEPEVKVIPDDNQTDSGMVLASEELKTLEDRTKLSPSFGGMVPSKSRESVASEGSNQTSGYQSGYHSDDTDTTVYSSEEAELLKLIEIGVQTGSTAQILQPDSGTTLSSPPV
# Summary of the method: as §1
# [10] = target: T10, Flt-1 (Homo sapiens, UniProt P17948); experiment: Kinase inhibition assay (33P transfer), Flt-1
# T10 construct: Kinases are expressed as either kinase domains or full length constructs; made in house
# Summary of the method: as §2
# [11] = target: T11, c-Met (Homo sapiens, UniProt P08581); experiment: Kinase inhibition assay (33P transfer), c-Met; conditions: read-out: Met-1
# T11 construct: Kinases are expressed as either kinase domains or full length constructs; made in house
# Summary of the method: as §2
# [12] = target: T12, AKT (Homo sapiens, UniProt Q9Y243); experiment: Kinase inhibition assay (33P transfer), AKT; conditions: read-out: AKT3-1
# T12 construct: Kinases are expressed as either kinase domains or full length constructs; made in house
# T12 sequence (Q9Y243 whole entry, the tested form may be a part): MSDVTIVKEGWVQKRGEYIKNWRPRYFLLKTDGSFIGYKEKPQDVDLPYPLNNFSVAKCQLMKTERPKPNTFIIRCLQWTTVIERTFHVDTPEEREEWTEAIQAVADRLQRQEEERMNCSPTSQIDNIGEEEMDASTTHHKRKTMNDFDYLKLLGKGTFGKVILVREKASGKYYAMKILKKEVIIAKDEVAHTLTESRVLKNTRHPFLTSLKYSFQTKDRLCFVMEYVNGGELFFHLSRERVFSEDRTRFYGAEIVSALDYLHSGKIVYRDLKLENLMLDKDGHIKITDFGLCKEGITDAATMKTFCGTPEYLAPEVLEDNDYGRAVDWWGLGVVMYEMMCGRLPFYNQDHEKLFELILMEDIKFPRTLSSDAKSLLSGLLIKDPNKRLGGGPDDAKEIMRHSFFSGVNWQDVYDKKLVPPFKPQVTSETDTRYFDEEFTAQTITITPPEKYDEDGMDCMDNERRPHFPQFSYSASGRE
# Summary of the method: as §1
# [13] = target: T13, IGFR-1 (Homo sapiens, UniProt P08069); experiment: Kinase inhibition assay, IGFR-1 (Table 2); conditions: Table 2, kinase inhibition class
# T13 construct: Kinases are expressed as either kinase domains or full length constructs; made in house
# [14] = target: T14, PDGFRB (Homo sapiens, UniProt P09619); experiment: Kinase inhibition assay (33P transfer), PDGFRB; conditions: read-out: PDGFRB-1
# T14 construct: Kinases are expressed as either kinase domains or full length constructs; made in house
# T14 sequence (P09619 33-1106, species assumed): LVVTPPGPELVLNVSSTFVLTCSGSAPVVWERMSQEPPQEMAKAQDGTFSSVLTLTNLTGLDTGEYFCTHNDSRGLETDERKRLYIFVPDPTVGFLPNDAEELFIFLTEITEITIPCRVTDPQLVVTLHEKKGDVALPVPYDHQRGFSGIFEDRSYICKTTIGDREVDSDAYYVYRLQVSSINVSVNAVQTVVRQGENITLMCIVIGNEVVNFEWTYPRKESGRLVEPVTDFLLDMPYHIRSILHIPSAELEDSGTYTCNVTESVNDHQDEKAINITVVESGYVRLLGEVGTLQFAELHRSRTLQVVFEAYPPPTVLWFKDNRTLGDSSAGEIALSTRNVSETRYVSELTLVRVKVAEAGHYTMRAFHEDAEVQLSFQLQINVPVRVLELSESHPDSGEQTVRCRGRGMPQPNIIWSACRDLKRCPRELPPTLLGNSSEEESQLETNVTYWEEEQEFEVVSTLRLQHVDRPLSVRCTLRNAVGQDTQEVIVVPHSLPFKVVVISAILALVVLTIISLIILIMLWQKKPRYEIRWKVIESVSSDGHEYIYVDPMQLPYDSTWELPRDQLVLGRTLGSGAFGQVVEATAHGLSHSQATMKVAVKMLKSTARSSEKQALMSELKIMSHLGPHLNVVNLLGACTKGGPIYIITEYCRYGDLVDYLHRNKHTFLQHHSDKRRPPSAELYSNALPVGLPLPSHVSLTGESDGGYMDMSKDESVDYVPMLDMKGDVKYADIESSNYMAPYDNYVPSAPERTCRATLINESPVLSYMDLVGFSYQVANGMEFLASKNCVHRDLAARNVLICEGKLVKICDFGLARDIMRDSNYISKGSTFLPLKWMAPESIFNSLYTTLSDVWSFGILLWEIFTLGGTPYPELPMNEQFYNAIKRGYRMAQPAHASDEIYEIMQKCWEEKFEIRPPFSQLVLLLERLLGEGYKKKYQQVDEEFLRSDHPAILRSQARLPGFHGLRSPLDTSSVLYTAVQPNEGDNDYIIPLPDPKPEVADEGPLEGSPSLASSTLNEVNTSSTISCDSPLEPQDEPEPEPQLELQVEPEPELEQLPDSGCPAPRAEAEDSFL
# [15] = target: T15, ErbB4 (Homo sapiens, UniProt Q15303); experiment: Kinase inhibition assay (33P transfer), ErbB4; conditions: read-out: ErbB4-1
# T15 construct: Kinases are expressed as either kinase domains or full length constructs; made in house
# [16] = target: T16, Ret-1 (Homo sapiens, UniProt P07949); experiment: Kinase inhibition assay (33P transfer), Ret; conditions: Table 6, Ret-1 kinase inhibition class
# T16 construct: Kinases are expressed as either kinase domains or full length constructs; made in house
# [17] = target: T17, FGFR1 (Homo sapiens, UniProt P11362); experiment: Kinase inhibition assay (33P transfer), FGFR1; conditions: read-out: FGFR1-1
# T17 construct: Kinases are expressed as either kinase domains or full length constructs; made in house
# [18] = target: T13, IGFR-1; experiment: Kinase inhibition assay (33P transfer), IGFR-1; conditions: Table 2, class symbols A-E
# [19] = Table 2, kinase inhibition class
Compound,IC50 [1],IC50 [2],IC50 [3],IC50 [4],IC50 [5],IC50 [6],IC50 [8],IC50 [9],IC50 [10],"IC50 [11, 19]","IC50 [12, 19]",IC50 [14],"IC50 ([1]; Table 3, class symbols)","IC50 ([5]; Table 3, class symbols)","IC50 ([6]; Table 3, class symbols)","IC50 ([7]; Table 2, class symbols A-E)","IC50 ([9]; Table 3, class symbols)","IC50 ([11]; Table 2, class symbols A-E)","IC50 ([12]; Table 2, class symbols A-E)",IC50 [18],also measured
Cc1cccc(Nc2ncnc(N3CCCc4ccc(C(F)(F)F)cc43)n2)c1 [Compound 582],6.23 to 9.08 µM,> 11.7 µM,> 11.7 µM,> 11.7 µM,> 11.7 µM,> 11.7 µM,1.04 to 6.23 µM,6.23 to 9.08 µM,> 11.7 µM,9.08 to 11.7 µM,> 11.7 µM,> 11.7 µM,–,–,–,–,–,–,–,–,"IC50 [7, 19]: < 1.04 µM; IC50 [13]: > 11.7 µM; IC50 [15]: > 11.7 µM; IC50 [16]: 6.23 to 9.08 µM; IC50 [17]: 1.04 to 6.23 µM"
COc1cc(Nc2ncnc(-n3c(NC4c5ccccc5CC4O)nc4ccccc43)n2)cc(OC)c1OC (stereo not drawn) [Compound 579],0.761 to 4.57 µM,4.57 to 6.66 µM,> 8.56 µM,> 8.56 µM,> 8.56 µM,> 8.56 µM,4.57 to 6.66 µM and < 0.761 µM,0.761 to 4.57 µM and < 0.761 µM,0.761 to 4.57 µM,> 8.56 µM,> 8.56 µM,> 8.56 µM,–,–,–,–,–,–,–,–,IC50 [13]: > 8.56 µM; IC50 [15]: < 0.761 µM; IC50 [16]: < 0.761 µM; IC50 [17]: 0.761 to 4.57 µM
CCOC(=O)C(Nc1nc2ccccc2n1-c1ncnc(Nc2cc(OC)c(OC)c(OC)c2)n1)c1ccccc1 (stereo not drawn) [Compound 585],4.32 to 6.3 µM,> 8.1 µM,> 8.1 µM,> 8.1 µM,> 8.1 µM,> 8.1 µM,4.32 to 6.3 µM,< 0.72 µM,0.72 to 4.32 µM,6.3 to 8.1 µM,> 8.1 µM,0.72 to 4.32 µM,–,–,–,–,–,–,–,–,"IC50 [7, 19]: > 8.1 µM; IC50 [13]: > 8.1 µM; IC50 [15]: > 8.1 µM; IC50 [16]: < 0.72 µM; IC50 [17]: < 0.72 µM"
CN(c1cccc(Cl)c1)c1ncnc(Nc2ccc3c(cnn3C)c2)n1 [Compound 674],–,–,–,–,–,–,1.09 to 6.56 µM,–,–,–,–,1.09 to 6.56 µM,1.09 to 6.56 µM,> 12.3 µM,> 12.3 µM,< 1.09 µM,1.09 to 6.56 µM,1.09 to 6.56 µM,> 12.3 µM,> 12.3 µM,–
COc1cc(Nc2ncnc(N3CCCc4cc(Cl)ccc43)n2)cc(OC)c1OC [Compound 639],–,–,–,–,–,–,5.61 to 8.18 µM,–,–,–,–,< 0.935 µM,0.935 to 5.61 µM,> 10.5 µM,> 10.5 µM,< 0.935 µM,< 0.935 µM,< 0.935 µM,> 10.5 µM,> 10.5 µM,–
C=CCN(c1cccc(Cl)c1)c1ncnc(Nc2cc(OC)cc(OC)c2)n1 [Compound 722],–,–,–,–,–,–,1.01 to 6.03 µM,–,–,–,–,1.01 to 6.03 µM,1.01 to 6.03 µM,> 11.3 µM,< 1.01 µM,< 1.01 µM,< 1.01 µM,1.01 to 6.03 µM,> 11.3 µM,8.8 to 11.3 µM,–

# Now from value to compound, other results behind:
IC50 [1],IC50 [2],IC50 [3],IC50 [4],IC50 [5],IC50 [6],IC50 [8],IC50 [9],IC50 [10],"IC50 [11, 19]","IC50 [12, 19]",IC50 [14],"IC50 ([1]; Table 3, class symbols)","IC50 ([5]; Table 3, class symbols)","IC50 ([6]; Table 3, class symbols)","IC50 ([7]; Table 2, class symbols A-E)","IC50 ([9]; Table 3, class symbols)","IC50 ([11]; Table 2, class symbols A-E)","IC50 ([12]; Table 2, class symbols A-E)",IC50 [18],Compound,also measured
–,–,–,–,–,–,0.929 to 5.58 µM,–,–,–,–,< 0.929 µM,8.13 to 10.5 µM,> 10.5 µM,> 10.5 µM,0.929 to 5.58 µM,< 0.929 µM,8.13 to 10.5 µM,> 10.5 µM,> 10.5 µM,O=C(O)Cc1cccc(Nc2ncnc(-c3cccnc3NCc3ccc(F)cc3)n2)c1 [Compound 1100],–
–,–,–,–,–,–,0.913 to 5.48 µM,–,–,–,–,> 10.3 µM,0.913 to 5.48 µM,> 10.3 µM,0.913 to 5.48 µM,7.99 to 10.3 µM,0.913 to 5.48 µM,0.913 to 5.48 µM,> 10.3 µM,< 0.913 µM,COc1cc(C)c(Nc2ncnc(Nc3cc(-c4ccc(Cl)cc4)n[nH]3)n2)cc1OC [Compound 1128],–
–,–,–,–,–,–,> 10.6 µM,–,–,–,–,> 10.6 µM,> 10.6 µM,> 10.6 µM,> 10.6 µM,> 10.6 µM,> 10.6 µM,> 10.6 µM,> 10.6 µM,8.27 to 10.6 µM,COC(=O)c1ccc(-c2cc(Nc3ncnc(Nc4cc(F)cc(F)c4)n3)[nH]n2)cc1 [Compound 810],–
–,–,–,–,–,–,1.06 to 6.38 µM,–,–,–,–,1.06 to 6.38 µM,1.06 to 6.38 µM,> 12 µM,1.06 to 6.38 µM,< 1.06 µM,< 1.06 µM,1.06 to 6.38 µM,> 12 µM,1.06 to 6.38 µM,CNC(=O)c1cccc(Nc2ncnc(Nc3cc(-c4ccco4)[nH]n3)n2)c1 [Compound 826],–
